Measurements from US20230138400A1, “METHODS AND PHARMACEUTICAL COMPOSITIONS FOR REPROGRAMING IMMUNE ENVIRONMENT IN A SUBJECT IN NEED THEREOF” (INSERM (INSTITUT NATIONAL DE LA SANTE ET DE LA RECHERCHE …, priority 2016, published 2023).

Columns and labels:
[1] = tested on: E0771 tumors; test: Immune cells infiltrated into E0771 tumors (wild type, sh control, sh LXR) after DDA, flow cytometry; assay type: in vivo, mouse
Text: FIGS. 14A-D. […] mice were grafted subcutaneously with 300 000 E0771 tumor cells knocked down for the LXR (E0771 sh LXR) or with control cells (E0771 Sh control). […] 15 days post DDA treatment, the tumor cells were collected to assess by flow cytometry the CD4 Th1 cells (CD4+ Tbet+), CD4 T regulatory (Treg: CD4+ Foxp3+), CD8 T cells cytotoxic (CTL: CD8+ granzyme +)) or not (non CTL: CD8+ Granzyme −), macrophage M1 (F4/80+ CD206− CD86+) and M2 (F4/80+ CD206+ CD86−), dendritic cells CD11c+, CD11c+CD8α+ and myeloid derived suppressive cells (MDSC: CD11b+CD11clow, LY6C+ly6Gint) infiltrated into the tumors. To observe the cytotoxic CD8 T cells, the tumor suspension was prealably stimulated 2 h in vitro with a cocktail of PMA (50 ng/ml), ionomycine (500 ng/ml) and golgistop (concentration from manufacture BD Pharmagen), then the cells were stained with specific antibodies. The bars graphs represent the ratio between (A) Th1 and Treg, (B) CTL and non CTL, (C) M1 and M2 and (D) Alls DCs (CD11c+ and CD11c+ CD8α+) and MDSC infiltrated inside the tumors: E0771 sh control or E0771 Sh LXR (knocked down for LXRβ) from mice treated or not with DDA at 0.37 ug/kg. In cells expressing the LXRβ (E0771 shcontrol cells), DDA increases the infiltration of activated immune cells (Th1, CTL, macrophages M1 and DC) and decreases the infiltration of immunosuppressives cells (Treg, non CTL, M2 and MDSC).
FIGS. 15A-D. DDA treatment decreases the percentage of T regulatory CD4 T cells and increases the activated CD4+ and CD8+ T cells inside tumors. […] When tumors were palpable (50 mm3), the animals were treated with the vehicle (empty symbol) or s.c. 0.37 μg/kg of DDA (full symbol) every 2 days, once a day. […] post treatment, the animals were sacrified to collect the tumors. The tumors were dissociated by using gentlemac technology (Miltenyi) and then the suspension of tumor cells were stimulated with 50 ng/ml of PMA (Sigma), 500 ng/ml Ionomycin (Sigma) and 1/1000 of golgi stop (ebiosicence) during 3 h at 37° C. Tumor infiltrated Lymphocytes (TIL) isolated from E0711 tumors were stained with antibodies against CD45, CD8, CD4, PD-1, Foxp3, T-bet, IFN-g, Granzym B, PD-1 as well as live/dead stain. By gating on CD45+CD4+ (A-B) or CD45+CD8+ T cells populations (C-D), the tumor-infiltrating (A) T regulatory cells (Treg; Foxp3+), (B) effector CD4+ cells (Th1; T-bet+) and (C) cytotoxic CD8 T cells (CTL; IFN-γ+Granzym B+) were analyzed by flow cytometry. The vehicle condition is normalized at 1 and the graphs are representative of three independent experiments. (D). The graph represents the percentage of PD-1 negative CD8+ cells inside tumors of mice treated with vehicle or DDA and is representative of three independent experiments.
FIGS. 17A-D. The silencing of LXRβ in tumor affects the effects of DDA on T regulatory and cytotoxic CD8+ T cells population infiltrated inside tumor. Animals grafted with E0711 tumors expressing the LXRβ (square symbol) or knockdown for the LXRβ expression (circle symbol) treated in FIG. 2 were sacrified to collect tumors, 15 days post treatment with the vehicle (empty symbol) or 0.37 μg/kg of DDA (full symbol). The tumor were dissociated by using gentlemac technology (Miltenyi), and the suspension of tumor cells obtained were stimulated with 50 ng/ml of PMA (Sigma), 500 ng/ml Ionomycin (Sigma) and 1/1000 of golgi stop (ebiosicence) during 3 h at 370 to analyze by flow cytometry the phenotype of tumor-infiltrated lymphocytes. By gating on CD45+CD4+ (A-B) or CD45+CD8+ T cells populations (C-D) as well as live/dead stain, the tumor-infiltrating (A) T regulatory cells (Treg; Foxp3+), (B) effector CD4+ cells (Th1; T-bet+) and (C) cytotoxic CD8 T cells (CTL; IFN-γ+Granzym B+) were determined.

[2] = tested on: E0771 sh control or E0771 sh LXR tumors; test: Tumor growth and survival, E0771 sh control or E0771 sh LXR tumors, DDA treatment; assay type: in vivo, mouse
Procedure: FIGS. 13A-B. Tumor growth analysis (A) Exponentially growing E0771 sh control or E0771 sh LXR cells were collected, washed twice in PBS and resuspended in PBS (300,000 cells in 100 μl PBS). […] mice were grafted subcutaneously with 300 000 E0771 sh control or E0771 sh LXR tumor cells. […] At day 15 of treatment with DDA or the solvent vehicle, the tumors were removed and the immune cells infiltrated into the tumors were analyzed by flow cytometry (see FIG. 14).
FIGS. 16A-C. The control of tumor growth and the increase in animal survival upon DDA treatment are dependent on the LXRβ expressed in tumor cells. […] The animals were monitored over time for (A) tumor growth and (B) animal survival. (C) Tumor weights were measured at the end of the experiment.

[3] = tested on: human and murine mammary tumor cells; test: Exosome secretion of mammary tumor cells treated with DDA; assay type: cell-based; conditions: data not shown
[4] = E0771 shcontrol, 0.37 μg/kg DDA every 2 days, 15 days (FIG. 14)
[5] = decrease expression of LXRB into the tumors (FIG. 17)
[6] = tumors expressing LXRβ, 0.37 μg/kg DDA, 15 days (FIG. 17)
[7] = wild type E0771, s.c. 0.37 μg/kg DDA every 2 days (FIG. 15)
[8] = E0771 expressing LXRβ, 0.37 μg/kg DDA IP every two days (FIG. 16)

## CC(C)CCCC(C)[C@H]1CCC2C3C[C@@H](NCCc4cnc[nH]4)[C@@]4(O)C[C@@H](O)CC[C@]4(C)C3CC[C@@]21C (some centres unmarked) [DDA, 5a-hydroxy-6b-[2-(1H-imidazol-4-yl)ethylamino]cholestan-3b-ol]
[1]; 0.37 μg/kg DDA (FIG. 18)
  number of macrophages M1 infiltrated into the tumors: increases
[1]; 0.37 μg/kg DDA (FIG. 19)
  ratio of dendritic cells CD11+ versus MDSC: increases
[1]; E0771 shLXR cells (FIG. 14)
  effect of DDA on immune cell infiltration: significantly decreased
[1]; [4]
  infiltration of activated immune cells (Th1, CTL, macrophages M1 and DC): increases
  infiltration of immunosuppressives cells (Treg, non CTL, M2 and MDSC): decreases
[1]; [5]
  effect of DDA on T regulatory cells infiltrated into the tumors: abolished
  effect of DDA on activated cytotoxic CD8+ T cells infiltrated into the tumors: abolished
  influence of decreased LXRB expression on DDA effect on effector Th1CD4+: had no effect
[1]; shLXRβ vs LXRβ expressing tumors (FIG. 18)
  LXRβ dependence of effect on macrophages M2: independent of the LXRβ
[1]; [6]
  number of T regulatory cells infiltrated into the tumors: decreases
  number of activated cytotoxic CD8+ T cells infiltrated into the tumors: increases
  number of effector Th1CD4+ cells infiltrated into the tumors: increases
[1]; [7]
  activated CD4+ T cells inside tumors: increases
  activated CD8+ T cells inside tumors: increases
  number of T regulatory CD4 T cells inside tumors: decreases
[2]; [8]
  animal survival: increases animal survival
  tumor growth: inhibits tumor growth
[2]; E0771 sh LXR, 0.37 μg/kg DDA every 2 days (FIG. 13)
  effect on growth of tumors: abolished
[2]; E0771 sh control, 0.37 μg/kg DDA every 2 days (FIG. 13)
  growth of tumors: significantly controls the growth
[3]
  production of exosome secreted into the media: also observed
